The target in the assay is T1, recombinant IRAK-4 kinase (Homo sapiens, UniProt Q9NWZ3).
T1 construct: purchased Millipore, USA
T1 sequence (Q9NWZ3 1-460): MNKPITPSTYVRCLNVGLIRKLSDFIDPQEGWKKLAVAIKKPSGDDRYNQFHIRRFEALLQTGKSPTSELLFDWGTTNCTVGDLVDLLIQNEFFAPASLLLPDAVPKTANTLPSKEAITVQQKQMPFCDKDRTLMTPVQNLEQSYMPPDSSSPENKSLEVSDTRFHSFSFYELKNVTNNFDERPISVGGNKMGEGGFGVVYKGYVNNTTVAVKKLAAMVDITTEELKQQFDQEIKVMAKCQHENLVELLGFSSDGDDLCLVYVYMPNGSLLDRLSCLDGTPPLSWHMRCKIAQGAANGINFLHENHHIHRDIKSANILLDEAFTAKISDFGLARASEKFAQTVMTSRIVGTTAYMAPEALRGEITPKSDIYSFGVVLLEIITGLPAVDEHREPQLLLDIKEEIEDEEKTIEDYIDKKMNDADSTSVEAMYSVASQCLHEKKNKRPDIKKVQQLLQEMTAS
Briefly: IRAK-4 Biochemical Assay (TR-FRET). The note with it: 5 ng IRAK-4 kinase, 100 nM Biotin Histone H3, 20 μM ATP, 30 minutes pre-incubation, read-out: IC50 values for IRAK4 activity. As for the experimental part: Compounds were tested for their potential to inhibit IRAK-4 enzyme in a TR-FRET assay using recombinant IRAK-4 kinase from Millipore, USA. The assay buffer was 50 mM Tris-HCl pH 7.5, 20 mM MgCl2, 1 mM EGTA, 2 mM DTT, 3 mM MnCl2 and 0.01% Tween20. 5 ng of IRAK-4 kinase was used for the assay. After pre-incubation of enzyme with test compound for 30 minutes at room temperature, a substrate mix containing 100 nM Biotin Histone H3 (Millipore, USA) and 20 μM ATP (Sigma, USA) was added and the reaction was incubated for 30 minutes. Post incubation, the reaction was stopped by the addition of stop mix containing 40 mM EDTA, 1 nM of Europium-Anti-Phospho-Histone H3 (Ser10) antibody (Perkin Elmer, USA) and 20 nM Sure Light Allophycocyanin-Streptavidin (Perkin Elmer, USA).
On the technique in general: TR-FRET usually uses a lanthanide donor and a delayed reading to cut background.
In general, IC50 refers to the midpoint of a concentration-inhibition curve. Turning to `Cc1cc(-c2nc(C(=O)Nc3cc4sc(N5CCOCC5)nc4nc3N3CCC[C@H](F)C3)co2)ccn1` [Example 59, (S)—N-(5-(3-fluoropiperidin-1-yl)-2-morpholinothiazolo[4,5-b]pyridin-6-yl)-2-(2-methylpyridin-4-yl)oxazole-4-carboxamide], the concentration for half-maximal inhibition (IC50) was < 50 nM.
As for `Cc1ccc(-c2nc(C(=O)Nc3cc4sc(N5CCOCC5)nc4nc3N3CCCCC3)co2)cn1` [Example 60, 2-(6-methylpyridin-3-yl)-N-(2-morpholino-5-(piperidin-1-yl)thiazolo[4,5-b]pyridin-6-yl)oxazole-4-carboxamide], the IC50 is < 50 nM.
`Cc1cnccc1-c1nc(C(=O)Nc2cc3sc(N4CCOCC4)nc3nc2N2CCCCC2)co1` [Example 61, 2-(3-methylpyridin-4-yl)-N-(2-morpholino-5-(piperidin-1-yl)thiazolo[4,5-b]pyridin-6-yl)oxazole-4-carboxamide]: the IC50 is < 50 nM.
The result for `N[C@H]1CCN(c2cccc(C(=O)Nc3cc4sc(N5CCOCC5)nc4nc3N3CCCCC3)n2)C1` [Example 62, (S)-6-(3-aminopyrrolidin-1-yl)-N-(2-morpholino-5-(piperidin-1-yl)thiazolo[4,5-b]pyridin-6-yl)picolinamide] reads < 50 nM; that for `O=C(Nc1cc2sc(N3CCOCC3)nc2nc1N1CCCCC1)c1cccc(N2CC[C@H](O)C2)n1` [Example 63, (S)-6-(3-hydroxypyrrolidin-1-yl)-N-(2-morpholino-5-(piperidin-1-yl)thiazolo[4,5-b]pyridin-6-yl)picolinamide], < 50 nM; that for `N[C@H]1CCN(c2cccc(C(=O)Nc3cc4sc(N5CCCCC5)nc4nc3N3CCCCC3)n2)C1` [Example 64, (S)-6-(3-aminopyrrolidin-1-yl)-N-(2,5-di(piperidin-1-yl)thiazolo[4,5-b]pyridin-6-yl)picolinamide], < 50 nM.
Take `O=C(Nc1cc2sc(N3CCCCC3)nc2nc1N1CCCCC1)c1cccc(N2CC[C@H](O)C2)n1` [Example 65, (S)—N-(2,5-di(piperidin-1-yl)thiazolo[4,5-b]pyridin-6-yl)-6-(3-hydroxypyrrolidin-1-yl)picolinamide]: the IC50 is < 50 nM.
Consider `N[C@H]1CCN(c2nc(C(=O)Nc3cc4sc(N5CCOCC5)nc4nc3N3CCCCC3)co2)C1` [Example 66, (S)-2-(3-aminopyrrolidin-1-yl)-N-(2-morpholino-5-(piperidin-1-yl)thiazolo[4,5-b]pyridin-6-yl)oxazole-4-carboxamide], for which the IC50 is < 50 nM.
Take `Cc1cc(-c2nc(C(=O)Nc3cc4sc(N5CCOCC5)nc4nc3N3CC[C@H](N)C3)co2)ccn1` [Example 67, (S)—N-(5-(3-aminopyrrolidin-1-yl)-2-morpholinothiazolo[4,5-b]pyridin-6-yl)-2-(2-methylpyridin-4-yl)oxazole-4-carboxamide]: the IC50 was < 50 nM.
`N[C@H]1CCN(c2nc(C(=O)Nc3cc4sc(N5CCOCC5)nc4nc3C3CC3)co2)C1` [Example 68, (S)-2-(3-aminopyrrolidin-1-yl)-N-(5-cyclopropyl-2-morpholinothiazolo[4,5-b]pyridin-6-yl)oxazole-4-carboxamide]: the IC50 was in the range of 50 to 100 nM.
Turning to `Cc1cc(-c2nc(C(=O)Nc3cc4sc(N5CCOCC5)nc4nc3C3CC3)co2)ccn1` [Example 69, N-(5-cyclopropyl-2-morpholinothiazolo[4,5-b]pyridin-6-yl)-2-(2-methylpyridin-4-yl)oxazole-4-carboxamide], the IC50 was < 50 nM.
On to `O=C(Nc1cc2sc(N3CCOCC3)nc2nc1N1CCCCC1)c1coc(N2CC[C@H](O)C2)n1` [Example 70, (S)-2-(3-hydroxypyrrolidin-1-yl)-N-(2-morpholino-5-(piperidin-1-yl)thiazolo[4,5-b]pyridin-6-yl)oxazole-4-carboxamide], for which the IC50 is < 50 nM.
In the case of `Cc1cc(-c2nc(C(=O)Nc3cc4sc(N5CCOCC5)nc4nc3N3CC[C@H](O)C3)co2)ccn1` [Example 71, (S)—N-(5-(3-hydroxypyrrolidin-1-yl)-2-morpholinothiazolo[4,5-b]pyridin-6-yl)-2-(2-methylpyridin-4-yl)oxazole-4-carboxamide], the IC50 was < 50 nM.
Then `O=C(Nc1cc2sc(N3CCOCC3)nc2nc1C1CC1)c1cccc(N2CC[C@H](O)C2)n1` [Example 72, (S)—N-(5-cyclopropyl-2-morpholinothiazolo[4,5-b]pyridin-6-yl)-6-(3-hydroxypyrrolidin-1-yl)picolinamide], with < 50 nM; and `O=C(Nc1cc2sc(N3CCOCC3)nc2nc1C1CC1)c1coc(N2CC[C@H](O)C2)n1` [Example 73, (S)—N-(5-cyclopropyl-2-morpholinothiazolo[4,5-b]pyridin-6-yl)-2-(3-hydroxypyrrolidin-1-yl)oxazole-4-carboxamide], with < 50 nM; and `C[C@H](O)Cn1cc(-c2cccc(C(=O)Nc3cc4sc(N5CCOCC5)nc4nc3C3CC3)n2)cn1` [Example 74, (S)—N-(5-cyclopropyl-2-morpholinothiazolo[4,5-b]pyridin-6-yl)-6-(1-(2-hydroxypropyl)-1H-pyrazol-4-yl)picolinamide], with < 50 nM.
Turning to `C[C@H](O)Cn1cc(-c2nc(C(=O)Nc3cc4sc(N5CCOCC5)nc4nc3C3CC3)co2)cn1` [Example 75, (S)—N-(5-cyclopropyl-2-morpholinothiazolo[4,5-b]pyridin-6-yl)-2-(1-(2-hydroxypropyl)-1H-pyrazol-4-yl)oxazole-4-carboxamide], the IC50 is < 50 nM.
`COc1ccc(-c2nc(C(=O)Nc3cc4sc(N5CCOCC5)nc4nc3N3CCC(O)C3)co2)cn1` (centres unmarked) [Example 76, N-(5-(3-hydroxypyrrolidin-1-yl)-2-morpholinothiazolo[4,5-b]pyridin-6-yl)-2-(6-methoxypyridin-3-yl)oxazole-4-carboxamide]: the IC50 is < 50 nM.
On to `COc1ccc(-c2nc(C(=O)Nc3cc4sc(N5CCOCC5)nc4nc3N3CC[C@H](O)C3)co2)cn1` [Example 77, (S)—N-(5-(3-hydroxypyrrolidin-1-yl)-2-morpholinothiazolo[4,5-b]pyridin-6-yl)-2-(6-methoxypyridin-3-yl)oxazole-4-carboxamide], for which the IC50 was < 50 nM.
`COc1ccc(-c2nc(C(=O)Nc3cc4sc(N5CCOCC5)nc4nc3N3CC[C@@H](O)C3)co2)cn1` [Example 78, (R)—N-(5-(3-hydroxypyrrolidin-1-yl)-2-morpholinothiazolo[4,5-b]pyridin-6-yl)-2-(6-methoxypyridin-3-yl)oxazole-4-carboxamide]: the IC50 is < 50 nM.
The result for `O=C(Nc1cc2sc(N3CCOCC3)nc2nc1N1CCC1)c1cccc(N2CC[C@H](O)C2)n1` [Example 79, (S)—N-(5-(azetidin-1-yl)-2-morpholinothiazolo[4,5-b]pyridin-6-yl)-6-(3-hydroxypyrrolidin-1-yl)picolinamide] reads 50 to 100 nM; that for `Cc1cc(-c2nc(C(=O)Nc3cc4sc(N5CCOCC5)nc4nc3N3CC(O)C3)co2)ccn1` [Example 80, N-(5-(3-hydroxyazetidin-1-yl)-2-morpholinothiazolo[4,5-b]pyridin-6-yl)-2-(2-methylpyridin-4-yl)oxazole-4-carboxamide], < 50 nM; that for `Cc1cc(-c2ccc(C(=O)Nc3cc4sc(N5CCOCC5)nc4nc3N3CC[C@H](O)C3)s2)ccn1` [Example 81, (S)—N-(5-(3-hydroxypyrrolidin-1-yl)-2-morpholinothiazolo[4,5-b]pyridin-6-yl)-5-(2-methylpyridin-4-yl)thiophene-2-carboxamide], > 100 nM.

These data come from patent US10047104B2, “Bicyclic heterocyclyl derivatives as IRAK4 inhibitors” (Aurigene Discovery Technologies Limited, priority 2014, dated 2018).
